One experiment has as its system E. coli DH5a. In kind it is cell-based. The following applies: DH5a, pH 7.2. The procedure:
(§1) The experiments described above characterizing the activity of granulysin peptides G1-G18 relied on counting bacterial colonies on plates. This assay is quite labor intensive and would not allow evaluation of many different compounds on a number of different microbes. Therefore, we optimized an assay in which the entire procedure could be completed in a single microtiter well. Briefly, peptides are diluted in 10 mM phosphate buffer, pH 7.2 supplemented with 0.03% LB (J. Sambrook, D. W. Russell, Molecular Cloning: A Laboratory Manual (Cold Spring Harbor Laboratory Press, New York, ed. 3, 2001) pg. A2.2, Retrieved from http://openwetware.org/wiki/LB) and 25 μl is added to microtiter wells. Bacteria (25 μl) are added (˜5×10^6 colony forming units/ml) in the same buffer. After a 3-hour incubation at 37° C., 150 μl of LB is added and the plates are incubated overnight. The OD at 600 nm is read on an ELISA plate reader. The minimum inhibitory concentration (MIC) is the lowest concentration allowing no bacterial growth. The IC50 is the concentration of peptide that results in 50% growth compared to the medium.
(§2) We now describe additional peptides and their activity. The peptides have been designed, synthesized, and have been tested for lysis of E. coli and S. typhimurium (gram negative bacteria), B. cereus (gram positive bacterium). Results are shown in Table 2 along with the amino acid sequence of the peptide. Changes from the naturally occurring sequence are underlined. In general, the desired result is lysis of bacteria at low concentration (<1 μM).
(§3) In Table 2, Columns 2-7 are the MIC and IC50 (concentration required for 50% inhibition of growth) for each organism (E. coli, Salmonella, and B. cereus). The MIC (minimum inhibitory concentration) was determined as described above, in a multiwell plate assay. […] L-isomer amino acids are designated by capital letters while D-isomer amino acids are designated by lower case letters.

The next experiment concerns B. cereus. In kind it is cell-based. Particulars: pH 7.2. The procedure: as §1, §2, §3
The next experiment relates to Salmonella. In kind it is cell-based, S. typhimurium. Particulars: pH 7.2. How it is done:
as §1, §2, §3

Here are results for 20 compounds from patent US7745390B2, “Antimicrobial peptides” (priority 2005, dated 2010).

pIC50: −log10 of the molar value. Bridge positions count the residues as written; N and C are the ends. Square brackets hold non-standard residues; d marks the D form. Ends that are not written are not given here. Peptide text beside a SMILES is read from it.

With “QRAVANAATRVARTGRARWRDVARRFMRR [Peptide G8.6]”, in the experiment on E. coli DH5a, the “E. coli DH5a MIC” value is 0.7 µM and the pIC50 is 6.35. In the experiment on B. cereus, the “B. cereus MIC” value was 1.5 µM and the pIC50 is 6.05. Also, in the experiment on Salmonella, the pIC50 was 6.37 and the “Salmonella MIC” value was found to be 0.7 µM.

As for “SDVARRFMRRQSRVIRRLV [Peptide G12.22, SDVARRFMRRQSRVIRRLV]”, in the experiment with E. coli DH5a, the “E. coli DH5a MIC” value is 1.38 µM and the pIC50 was 6.06. In addition, in the experiment on B. cereus, the “B. cereus MIC” value was found to be 5.7 µM and the pIC50 was 5.46. In addition, in the experiment with Salmonella, the negative-log IC50 (pIC50) was 6.05 and the “Salmonella MIC” value is 1.39 µM.

Take `CSCC[C@H](NC(=O)[C@H](Cc1ccccc1)NC(=O)[C@H](CCCNC(=N)N)NC(=O)[C@H](CCCNC(=N)N)NC(=O)[C@H](CO)NC(=O)[C@@H](NC(=O)[C@H](CCCNC(=N)N)NC(=O)[C@H](CCCNC(=N)N)NC(=O)[C@H](CS)NC(=O)[C@H](CS)NC(=O)[C@H](CCCNC(=N)N)NC(=O)[C@H](CCCNC(=N)N)NC(=O)[C@@H](NC(=O)[C@H](CO)NC(=O)[C@H](CCCNC(=N)N)NC(=O)[C@H](CCCNC(=N)N)NC(=O)[C@H](Cc1ccccc1)NC(=O)[C@H](CCSC)NC(=O)[C@H](CCCNC(=N)N)NC(=O)[C@@H](N)CCCNC(=N)N)C(C)C)C(C)C)C(=O)N[C@@H](CCCNC(=N)N)C(=O)N[C@@H](CCCNC(=N)N)C(=O)O` [Peptide G11.48] (H-RRMFRRSVRRCCRRVSRRFMRR-OH; N-terminus and C-terminus assumed): in the experiment on E. coli DH5a, the “E. coli DH5a MIC” value was over 10 µM and the pIC50 is 5.68. Further, in the experiment on B. cereus, the “B. cereus MIC” value worked out at 5.7 µM and the pIC50 was 5.45. In addition, in the experiment on Salmonella, the pIC50 is under 5.00 and the “Salmonella MIC” value is over 10 µM.

Regarding “QRSVSRAPTRVSRTGRSRW [Peptide G13.8, QRSVSRAPTRVSRTGRSRW]”, in the experiment on E. coli DH5a, the “E. coli DH5a MIC” value is 5.7 µM and the pIC50 is 5.48. In the experiment on B. cereus, the “B. cereus MIC” value is over 10 µM and the pIC50 was 5.11. In addition, in the experiment on Salmonella, the pIC50 is under 5.00 and the “Salmonella MIC” value is over 10 µM.

Consider “QRAVARAATRVARTGRARW [Peptide G13.6, QRAVARAATRVARTGRARW]”, for which, in the experiment with E. coli DH5a, the “E. coli DH5a MIC” value came to 2.8 µM and the pIC50 was 5.78. Also, in the experiment on B. cereus, the “B. cereus MIC” value was over 10 µM and the pIC50 was 5.11. In addition, in the experiment on Salmonella, the pIC50 is 5.13 and the “Salmonella MIC” value is over 10 µM.

Turning to `CSCC[C@@H](NC(=O)[C@@H](Cc1ccccc1)NC(=O)[C@@H](CCCNC(=N)N)NC(=O)[C@@H](CCCNC(=N)N)NC(=O)[C@@H](CO)NC(=O)[C@H](NC(=O)[C@@H](CCCNC(=N)N)NC(=O)[C@H](N)CCCNC(=N)N)C(C)C)C(=O)N[C@H](CCCNC(=N)N)C(=O)N[C@H](CCCNC(=N)N)C(=O)O` [Peptide G11.24, rrvsrrfmrr] (H-[dR][dR][dV][dS][dR][dR][dF][dM][dR][dR]-OH; N-terminus and C-terminus assumed), in the experiment on E. coli DH5a, the “E. coli DH5a MIC” value is 1.4 µM and the pIC50 is 6.07. For the same compound, in the experiment with B. cereus, the “B. cereus MIC” value is over 10 µM and the pIC50 was under 5.00. Moreover, in the experiment on Salmonella, the pIC50 was 6.07 and the “Salmonella MIC” value was determined as 1.4 µM.

In the case of “QRSVSNPPTRVSRPPRSRWRDVSRPPMRR [Peptide G8.16]”, in the experiment with E. coli DH5a, the “E. coli DH5a MIC” value was 0.7 µM and the pIC50 was 6.40. Also, in the experiment on B. cereus, the “B. cereus MIC” value was over 10 µM and the pIC50 was 5.14. For the same compound, in the experiment with Salmonella, the pIC50 was under 5.00 and the “Salmonella MIC” value was over 10 µM.

Take RRVSRRFMRRYRSRRIRRLV [Peptide G12.8]: in the experiment with E. coli DH5a, the “E. coli DH5a MIC” value was 0.7 µM and the pIC50 was 6.35. Further, in the experiment with B. cereus, the “B. cereus MIC” value was determined as 0.71 µM and the pIC50 was 6.35. In addition, in the experiment on Salmonella, the pIC50 is 6.39 and the “Salmonella MIC” value was found to be 0.65 µM.

With “QRSVSRPPTRVSRTGRSRW [Peptide G13.11, QRSVSRPPTRVSRTGRSRW]”, in the experiment on E. coli DH5a, the “E. coli DH5a MIC” value came to 5.75 µM and the pIC50 is 5.57. Further, in the experiment on B. cereus, the “B. cereus MIC” value is over 10 µM and the pIC50 was under 5.00. Further, in the experiment on Salmonella, the pIC50 was under 5.00 and the “Salmonella MIC” value is over 10 µM.

As for “KKVSKKFMKKGSKKVSKKFMKKGSKKVSKKFMKK [Peptide G11.25]”, in the experiment with E. coli DH5a, the “E. coli DH5a MIC” value amounted to 0.15 µM and the pIC50 is 7.00. Besides, in the experiment with B. cereus, the “B. cereus MIC” value was determined as 0.15 µM and the pIC50 was 7.00. Besides, in the experiment with Salmonella, the pIC50 was 7.00 and the “Salmonella MIC” value came to 0.15 µM.

Consider RRLLRRLLRRGSRRLLRRLLRR [Peptide G11.23], for which, in the experiment with E. coli DH5a, the “E. coli DH5a MIC” value was found to be 0.7 µM and the pIC50 is 6.35. Moreover, in the experiment with B. cereus, the “B. cereus MIC” value was 0.7 µM and the pIC50 was 6.39. In the experiment with Salmonella, the negative logarithm of the IC50 (pIC50) is 6.35 and the “Salmonella MIC” value was 0.71 µM.

In the case of QRRSSRFMRRYQRVVPRGLV [Peptide G12.24], in the experiment with E. coli DH5a, the “E. coli DH5a MIC” value came to 0.8 µM and the pIC50 was 6.38. In the experiment with B. cereus, the “B. cereus MIC” value came to 0.8 µM and the pIC50 was 6.38. Further, in the experiment on Salmonella, the pIC50 is 6.15 and the “Salmonella MIC” value turned out to be 1.4 µM.

Consider “QRAVARAATRVARTGRARWRRVARRFMRR [Peptide G8.10]”, for which, in the experiment on E. coli DH5a, the “E. coli DH5a MIC” value was 0.63 µM and the pIC50 is 6.35. In addition, in the experiment on B. cereus, the “B. cereus MIC” value was 0.75 µM and the pIC50 was 6.35. For the same compound, in the experiment on Salmonella, the pIC50 is 6.68 and the “Salmonella MIC” value came out at 0.35 µM.

On to “GSRRWRDVSRRFMRR [Peptide G14.14, GSRRWRDVSRRFMRR]”, for which, in the experiment on E. coli DH5a, the “E. coli DH5a MIC” value came to 0.17 µM and the pIC50 was 6.96. Besides, in the experiment on B. cereus, the “B. cereus MIC” value stood at 0.35 µM and the pIC50 was 6.68. In addition, in the experiment with Salmonella, the pIC50 is 6.68 and the “Salmonella MIC” value came to 0.7 µM.

As to “GRSRWRDVSRNFMRR [Peptide G14.1, GRSRWRDVSRNFMRR]”, in the experiment with E. coli DH5a, the “E. coli DH5a MIC” value was determined as 1.37 µM and the pIC50 is 6.05. In addition, in the experiment with B. cereus, the “B. cereus MIC” value was over 10 µM and the pIC50 is 5.12. Besides, in the experiment with Salmonella, the pIC50 is 5.76 and the “Salmonella MIC” value was determined as 2.8 µM.

As for “GRSRWRDVSRRFMRR [Peptide G14.2, GRSRWRDVSRRFMRR]”, in the experiment on E. coli DH5a, the “E. coli DH5a MIC” value is 1.45 µM and the pIC50 is 6.07. Also, in the experiment on B. cereus, the “B. cereus MIC” value was determined as 2.8 µM and the pIC50 was 5.76. Besides, in the experiment on Salmonella, the pIC50 is 6.07 and the “Salmonella MIC” value stood at 1.4 µM.

For the compound `CSCC[C@@H]1NC(=O)[C@H](Cc2ccccc2)NC(=O)[C@H](CCCCN)NC(=O)[C@H](CCCCN)NC(=O)[C@H](CO)NC(=O)[C@H](C(C)C)NC(=O)[C@H](CCCCN)NC(=O)[C@H](CCCCN)NC(=O)[C@@H](N)CSSC[C@@H](C(N)=O)NC(=O)[C@H](CCCCN)NC(=O)[C@H](CCCCN)NC(=O)[C@H](CCSC)NC(=O)[C@H](Cc2ccccc2)NC(=O)[C@H](CCCCN)NC(=O)[C@H](CCCCN)NC(=O)[C@H](CO)NC(=O)[C@H](C(C)C)NC(=O)[C@H](CCCCN)NC(=O)[C@H](CCCCN)NC(=O)[C@H](CO)NC(=O)CNC(=O)[C@H](CCCCN)NC(=O)[C@H](CCCCN)NC1=O` [G11.31 CYC] (H-CKKVSKKFMKKGSKKVSKKFMKKC-NH2; disulfide 1-24; N-terminus assumed), in the experiment on E. coli DH5a, the “E. coli DH5a MIC” value was 0.61 µM and the pIC50 was 6.38. Besides, in the experiment on B. cereus, the “B. cereus MIC” value is 0.7 µM and the pIC50 was 6.40. Besides, in the experiment with Salmonella, the pIC50 was 6.39 and the “Salmonella MIC” value was 0.7 µM.

Regarding RDVSRRFMRRGRDVSRRFMRR [Peptide G11.38], in the experiment on E. coli DH5a, the “E. coli DH5a MIC” value is 0.7 µM and the pIC50 was 6.38. Besides, in the experiment on B. cereus, the “B. cereus MIC” value stood at 1.4 µM and the pIC50 is 6.05. Moreover, in the experiment on Salmonella, the negative-log IC50 (pIC50) was 6.09 and the “Salmonella MIC” value is 1.35 µM.

Turning to RRVVRRFMRR [Peptide G11.16, RRVVRRFMRR], in the experiment on E. coli DH5a, the “E. coli DH5a MIC” value was determined as 1.4 µM and the pIC50 is 6.10. In the experiment on B. cereus, the “B. cereus MIC” value was over 10 µM and the pIC50 was 5.11. Further, in the experiment on Salmonella, the pIC50 is 5.46 and the “Salmonella MIC” value was determined as 5.6 µM.

As for “QRSVSRAATRVCRTGRSNW [Peptide G13.10, QRSVSRAATRVCRTGRSNW]”, in the experiment on E. coli DH5a, the “E. coli DH5a MIC” value amounted to 0.71 µM and the pIC50 was 6.60. Further, in the experiment with B. cereus, the “B. cereus MIC” value was 5.6 µM and the pIC50 was 5.46. Besides, in the experiment on Salmonella, the pIC50 is under 5.00 and the “Salmonella MIC” value was over 10 µM.

The term pIC50 denotes the IC50 on a negative log10 scale, so that one unit is a factor of ten.
